The values below come from patent US20050165006A1, “Quinoline derivatives, their preparation and pharmaceutical compositions comprising the same” (priority 2002, published 2005).

The term Ki denotes a measure of affinity in units of concentration, obtained from inhibition or displacement. A word on the LD50: it is the dose expected to kill half of the subjects tested. As usually defined, the ED50 is the dose at which the effect has come halfway, by size or by number of responders. Read a low ED50 as greater potency.

Like-named read-outs stand apart in the source and are kept apart here. Some results are limits rather than exact numbers.

In one data set the target is SERT (Homo sapiens, UniProt P31645). The following applies: known values, background art; read-out: binding affinity (Ki) to SERT; cited from earlier work.
SERT, sequence (P31645 whole entry, species assumed): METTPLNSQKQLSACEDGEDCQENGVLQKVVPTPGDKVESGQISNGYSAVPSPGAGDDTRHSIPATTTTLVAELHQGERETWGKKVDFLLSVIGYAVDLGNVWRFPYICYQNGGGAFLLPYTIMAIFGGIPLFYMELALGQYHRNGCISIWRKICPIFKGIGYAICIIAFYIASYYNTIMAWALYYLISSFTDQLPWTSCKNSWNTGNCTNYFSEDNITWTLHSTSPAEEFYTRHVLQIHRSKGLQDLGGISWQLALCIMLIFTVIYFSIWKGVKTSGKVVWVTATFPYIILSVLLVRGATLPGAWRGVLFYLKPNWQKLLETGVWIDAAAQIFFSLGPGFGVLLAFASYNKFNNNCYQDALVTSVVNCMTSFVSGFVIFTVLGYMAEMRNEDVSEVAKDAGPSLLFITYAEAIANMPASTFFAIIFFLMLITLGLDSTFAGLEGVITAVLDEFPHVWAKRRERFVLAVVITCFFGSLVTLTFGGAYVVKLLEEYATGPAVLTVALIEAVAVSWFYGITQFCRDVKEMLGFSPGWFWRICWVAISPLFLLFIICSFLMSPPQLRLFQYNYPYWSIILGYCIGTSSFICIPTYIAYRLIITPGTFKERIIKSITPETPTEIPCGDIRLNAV
Data set [1] concerns the target serotonin transporter (SERT) (Rattus norvegicus, UniProt P31652). Put plainly: Radioligand binding assay with [3H]citalopram on synaptic membrane. The conditions noted are these: for affinity (Ki value) compared with Fluoxetine: comparison in words on Table 3; for activity / binding affinity relative to 6-nitro-2-piperazin-1-yl-quinoline: ratio of Ki values of Table 3.
Protocol: After male SD Rats (250˜350 g) were decapitate by using quillotine, the whole brains were removed. The cerebral cortex were carefully cut to slices and weighed. 0.32 M sucrose which is 10 times of sucrose was added to the slices, and then homogenized twice for 15 seconds using Polytron. After being centrifuged at 4° C. for 10 minutes in 1,000×g, the thus obtained supernatant was re-centrifuged at 20,000×g for 20 minutes and then discarded. The precipitate was isolated, re-suspended in deionized water, was provided with osmotic shock for 10 minutes, and then centrifuged at 80,000×g for 20 minutes. The thus obtained precipitate was suspended in 50 ml of triacetate buffer, re-centrifuged at 48,000×g, and then transferred to a refrigerator. On the day of assay, the cells were thawed on ice, washed by centrifugation (48,000×g, 20 minutes).
The mixture was shaken at 25° C. for 60 minutes, incubated, filtered using a Brandel Cell Harvester through a GF/B Watman filter presoaked in 0.05 polyethylimine. The filters were then washed twice with 5 ml of ice-cold buffer, dried, added with 7 ml of ultima gold scintillation cocktail, and then shaken for 3˜4 hours.

A further data set can be described thus: Acute toxicity in rats. Type of data set: in vivo. The following applies: SD, rat, in vivo. The procedure:
(§1) 6-week old SPF SD line rats were used in the tests for acute toxicity. 6-chloro-2-piperazin-1-yl-quinoline or 4-chloro-6-nitro-2-piperazin-1-yl-quinoline were suspended in 1 ml saline buffer solution and […] administered to anterior tibialis once to 6 rats per group at the dosage of 500 mg/kg. Death, clinical symptoms, and weight change in rats were observed, hematological tests and biochemical tests of blood performed, and any abnormal signs in the gastrointestinal organs of chest and abdomen checked with eyes during autopsy. […]

For the next data set, the system named is SPF SD line rats. Put plainly: Acute toxicity in rats. Type of data set: in vivo. How it is done:
as §1

A further data set deals with depression-induced mice. Kind of data set: Assay for anti-depression activity using a forced swimming test. Type of data set: in vivo. The following applies: orally administered, 50 mg/kg (FIG. 1), p<0.003. The procedure:
After 4-chloro-6-nitro-2-piperazin-1-yl-quinoline was dissolved in dimethylsulfoxide in a variety of concentrations and injected to depression-induced mice, the time of immobility was measured. The immobility time may be evaluated by measuring the effect against anti-depression. Because immobility means a helplessness of the mice, in this case, slow immobility should be understood to reduce depression.
4-chloro-6-nitro-2-piperazin-1-yl-quinoline was orally administered after 23 hours from the first treatment, subsequently, after 24 hours, the animals were placed in the cage to carry out the second treatment and the immobility time was measured for 5 minutes. The immobility caused by the second treatment was recorded while watching video tape. In order to make an objective observation, we made an average of the results of make than 3 people.

A further data set concerns ICR mice. Kind of data set: Assay for anti-depression activity using a tail suspension test. Type of data set: in vivo. The conditions noted are these: for anti-depression effect higher than that of control (immobility time): ICR mice, oral. The procedure:
The inventors carried out the tail suspension test to evaluate an anti-depression activity of the present compound. ICR mice were divided into 5 groups made up of 8 subjects, and orally dosed with 4-chloro-6-nitro-2-piperazin-1-yl-quinoline dissolved in saline buffer solution in a variety of its concentration 60 minutes prior to the beginning of the experiment. The evaluation of the activity was estimated using administering group, negative, and positive group. After suspending the animal by the tail induced the immobility, the immobility time was measured 6 minutes watching a recorded tape for video. The final data was obtained an average value measured by 3 persons to accurate the data.

[2] abbreviates: 1 nM [3H]citalopram, rat cerebral cortex synaptic membrane, 25° C., 60 minutes.

serotonin transporter (SERT), sequence (P31652 whole entry): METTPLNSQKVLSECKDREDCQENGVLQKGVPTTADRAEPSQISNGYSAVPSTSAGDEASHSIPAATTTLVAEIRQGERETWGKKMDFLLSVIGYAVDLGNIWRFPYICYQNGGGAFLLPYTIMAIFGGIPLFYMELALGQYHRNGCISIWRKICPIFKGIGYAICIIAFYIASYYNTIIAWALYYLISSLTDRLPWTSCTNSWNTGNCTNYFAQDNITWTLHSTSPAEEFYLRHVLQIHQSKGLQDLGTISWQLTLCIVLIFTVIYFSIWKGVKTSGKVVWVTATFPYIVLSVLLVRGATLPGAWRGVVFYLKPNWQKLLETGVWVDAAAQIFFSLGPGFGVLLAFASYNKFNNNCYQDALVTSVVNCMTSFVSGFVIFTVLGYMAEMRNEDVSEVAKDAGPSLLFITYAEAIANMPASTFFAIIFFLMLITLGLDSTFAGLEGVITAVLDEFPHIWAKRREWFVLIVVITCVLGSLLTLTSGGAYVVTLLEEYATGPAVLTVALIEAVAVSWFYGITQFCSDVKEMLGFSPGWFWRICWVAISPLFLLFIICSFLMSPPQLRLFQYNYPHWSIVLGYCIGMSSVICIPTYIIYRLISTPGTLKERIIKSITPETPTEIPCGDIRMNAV

Regarding `O=[N+]([O-])c1ccc2nc(N3CCNCC3)ccc2c1` [6-nitro-2-piperazin-1-yl-quinoline, 6-nitro-2-(piperazin-1-yl)quinoline, reference compound], the results for the Ki (on SERT; in data set [1] (setting [2])) were 0.018 nM and 0.17 ± 0.03 nM, respectively.
`Cc1cc2cc([N+](=O)[O-])ccc2nc1N1CCNCC1` [Example 1, 3-methyl-6-nitro-2-(piperazin-1-yl)quinoline]: the Ki in data set [1] was 8.45 ± 0.62 nM.
For the compound `CCc1cc2cc([N+](=O)[O-])ccc2nc1N1CCNCC1` [Example 2, 3-ethyl-6-nitro-2-(piperazin-1-yl)quinoline], in data set [1], the Ki stood at 0.36 ± 0.02 nM and the “affinity (Ki value) compared with Fluoxetine” value was “exceed that of Fluoxetine”.
The matching figures for `CCCc1cc2cc([N+](=O)[O-])ccc2nc1N1CCNCC1` [Example 3, 6-nitro-2-(piperazin-1-yl)-3-propylquinoline]: 0.26 ± 0.01 nM and “exceed that of Fluoxetine”.
In the case of `O=[N+]([O-])c1ccc2nc(N3CCNCC3)c(CCCCl)cc2c1` [Example 4, 3-(3-chloropropyl)-6-nitro-2-piperazin-1-yl-quinoline], in data set [1], the Ki was found to be 1.08 ± 0.17 nM.
For the compound `O=[N+]([O-])c1ccc2nc(N3CCNCC3)c(CCCF)cc2c1` [Example 5, 3-(3-fluoropropyl)-6-nitro-2-piperazin-1-yl-quinoline], the Ki in data set [1] (setting [2]) amounted to 0.32 ± 0.01 nM. In data set [1], the “affinity (Ki value) compared with Fluoxetine” value is recorded as “exceed that of Fluoxetine”.
Take `Ic1ccc2nc(N3CCNCC3)ccc2c1` [Example 6, 6-iodo-2-piperazin-1-yl-quinoline]: in data set [1] (setting [2]), the Ki was determined as 6.6 ± 0.52 nM.
Same read-out and setting: the same measure for `Brc1ccc2nc(N3CCNCC3)ccc2c1` [Example 7, 6-bromo-2-piperazin-1-yl-quinoline]: 0.91 ± 0.07 nM.
For the compound `Clc1ccc2nc(N3CCNCC3)ccc2c1` [Example 8, 6-chloro-2-piperazin-1-yl-quinoline], the LD50 in the data set “Acute toxicity in rats” (rats, single administration of 500 mg/kg, read-out: estimated LD50) was > 500 mg/kg. Moreover, the “acute toxicity observations (death, clinical symptoms, weight change)” value with SPF SD line rats (rats, single administration of 500 mg/kg, 6 rats per group) is “did not cause any specific clinical symptoms, weight change, or death”. For the same compound, the affinity in data set [1] (setting [2]) corresponds to a Ki of 1.68 ± 0.13 nM.
For `O=[N+]([O-])c1ccc2nc(N3CCNCC3)c(Br)cc2c1` [Example 9, 3-bromo-6-nitro-2-(piperazin-1-yl)quinoline], in data set [1] (setting [2]), the Ki amounted to 12.6 ± 1.14 nM.
On to `O=[N+]([O-])c1ccc2nc(N3CCNCC3)cc(Cl)c2c1` [Example 10, 4-chloro-6-nitro-2-(piperazin-1-yl)quinoline], for which, in the data set “Acute toxicity in rats” (500 mg/kg), the LD50 was > 500 mg/kg. Besides, the “acute toxicity observations (death, clinical symptoms, weight change)” value with SPF SD line rats (rat, in vivo, 500 mg/kg) is reported as “did not cause any specific clinical symptoms, weight change, or death”. Further, the “anti-depression effect higher than that of the control (immobility time)” value in the data set with depression-induced mice stood at 30%. In the data set with ICR mice (FIG. 2B, 1 mg/kg or 10 mg/kg, anova p<0.005), the “effect higher than that of the control (immobility time)” value was “about 65%”. Further, the “anti-depression effect higher than that of control (immobility time)” value in the data set on ICR mice (5 mg/kg) is given as 56%; in the data set on ICR mice (50 mg/kg), 60%. For the same compound, in the data set with ICR mice (Mus musculus, expected from evenness of effect from 1 to 50 mg/kg), the ED50 was < 1 mg/kg. Further, the affinity in data set [1], expressed as Ki, was 0.017 nM. The figures for the “activity / binding affinity relative to 6-nitro-2-piperazin-1-yl-quinoline” value in data set [1] and in data set [1] (listed as 4-chloro-6-nitro-2-piperazin-1-yl-quinoline) were 10 times and “over ten times”, respectively.
`C=Cc1cc(N2CCNCC2)nc2ccc([N+](=O)[O-])cc12` [Example 13, 6-nitro-2-(piperazin-1-yl)-4-vinylquinoline] showed a Ki in data set [1] of 1.42 nM.
Still for that read-out and setting: the same measure for `O=[N+]([O-])c1ccc2nc(N3CCNCC3)cc(-c3ccco3)c2c1` [Example 14, 4-(2-furanyl)-6-nitro-2-(piperazin-1-yl)quinoline]: 6.4 nM.
Compound `CC1CN(c2ccc3cc([N+](=O)[O-])ccc3n2)CCN1` (stereo not shown) [Example 15, 2-(3-methylpiperazin-1-yl)-6-nitroquinoline] came in with a Ki in data set [1] (setting [2]) of 22.2 ± 1.7 nM.
As to `CNCCN(C)c1ccc2cc([N+](=O)[O-])ccc2n1` [Example 16, 2-(N-methyl-N-(2-N′-methylamino)ethyl)amino-6-nitroquinoline], the affinity in data set [1] (setting [2]) corresponds to a Ki of 8.43 ± 0.45 nM.
Still for that read-out and setting: the same measure for `O=[N+]([O-])c1ccc2nc(N3CCCNCC3)ccc2c1` [Example 17, 2-[1,4]diazepin-1-yl-6-nitroquinoline]: 1.9 ± 0.15 nM.
